This note sets out measurements from patent publication US20190054097A1, “COMPOSITIONS TARGETING SENESCENT CELLS AND THE USES THEREOF” (BioVentures, LLC, priority 2016, published 2019).

In one assay the test system is senescent cells. Put plainly: Cisplatin-induced peripheral neuropathy (CIPN) in p16-3MR transgenic mice, Von Frey assay and Hot Plate Analgesia Meter. Type of assay: in vivo. As to conditions: GCV 25 mg/kg/day or ABT263 50 mg/kg/day i.p., 5 days per cycle, 2 cycles, FIG. 8-11. As to the method: CIPN was induced in young adult male and female p16-3MR mice by intraperitoneal (i.p.) injection of cisplatin (Lake Zurich, Ill., USA) at 2.3 mg/kg/d for 5 days per cycle for 2 cycles with an interval of 5 days between the cycles. The induction of CIPN was measured by analyzing the mechanical sensitivity using the Von Frey assay the day before Cisplatin treatment and on various day after Cisplatin treatment. N=5-6 mice per group.
Mice were treated as described in FIG. 8. The induction of CIPN was measured by analyzing the sensitivity to thermal allodynia using the Hot Plate Analgesia Meter on various day after Cisplatin treatment. N=5-6 mice per group.
To determine the effect of senescent cells on the induction of CIPN, cisplatin-treated mice were administered with vehicle, ganciclovir (GCV) at 25 mg/kg/day for 5 days per cycle for 2 cycles with an interval of 17 days between the cycles, or ABT263 at 50 mg/kg/day for 5 days per cycle for 2 cycles with an interval of 17 days between the cycles by i.p. injection at the indicated times after cisplatin treatment. […] The induction of CIPN was measured by analyzing the mechanical sensitivity using the Von Frey assay (FIG. 8 and FIG. 9) and by analyzing the sensitivity to thermal allodynia using the Hot Plate Analgesia Meter (FIG. 10 and FIG. 11) the day before Cisplatin treatment and on various day after Cisplatin treatment.

The next assay deals with T1, Bcl-xL (Homo sapiens, UniProt Q07817).
T1 construct: endogenous in cells; host or cells: IR-SC WI38 cells
T1 sequence (Q07817 whole entry): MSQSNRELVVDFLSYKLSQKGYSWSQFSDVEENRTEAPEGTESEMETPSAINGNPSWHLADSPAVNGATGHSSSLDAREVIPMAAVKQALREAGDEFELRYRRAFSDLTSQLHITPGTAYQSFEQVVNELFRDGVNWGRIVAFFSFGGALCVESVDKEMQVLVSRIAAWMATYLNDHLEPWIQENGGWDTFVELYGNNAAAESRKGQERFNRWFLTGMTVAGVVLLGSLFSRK
The assay can be described thus: Protein degradation assay (western blot) in IR-SC WI38 cells. Format: cell-based. As to conditions: increasing concentrations for 18 hours (FIG. 3A); fixed concentration for increasing times (FIG. 3B). As to the method:
IR-SC WI38 cells were incubated with vehicle or increasing concentrations of XZ-14439 for 18 hours at increasing […] (FIG. 3A) and at a fixed concentration of XZ-14439 for increasing times (FIG. 3B). The cells were digested with 0.25% trypsin and 1 mM EDTA, and harvested in RIPA lysis buffer with 1% Phosphatase Inhibitor Cocktail 3 and 1% Protease Inhibitor Cocktail. An equal amount of protein (15-30 μg/lane) from each cell extract was resolved on a 12% SDS-PAGE gel. Proteins were blotted onto a NOVEX PVDF membrane by electrophoresis. The membranes were blocked with TBS-T blocking buffer (5% nonfat milk in 25 mM Tris-HCL, pH 7.4; 3 mM KCl; […] NaCl; and 0.05% Tween) and probed with primary antibodies (at a predetermined optimal concentration) overnight at 4° C. or for 1 hour at room temperature. […] After three washes with TBS-T, the proteins of interest were detected with ECL Western Blotting Detection Reagents and recorded with autoradiography (Pierce Biotech, Rockford, Ill., USA). […]
IR-SC WI38 (FIG. 4A) and RS4; 11 (FIG. 4B) cells were incubated with vehicle or increasing concentrations of compounds of Formula (I) or Formula (II) for 6 or 16 hours, at 1 μM (FIG. 4A) and 100 nm (FIG. 4B), respectively. […] After three washes with TBS-T, the proteins of interest were detected with ECL Western Blotting Detection Reagents and recorded with autoradiography. […]

The next assay deals with NCI-H146 cancer cells. The assay can be described thus: Cancer cell viability by MTS, 72 hours. Format: cell-based. As to the method:
(§1) RS4; 11 and NCI-H146 cancer cells were incubated with vehicle or increasing concentrations of compounds of Formula (I) and Formula (II). At 72 hours post-treatment cell viability was measured by MTS and EC50 was calculated as a percentage of control cells treated with vehicle. Table 1 depicts the EC50 values of compounds of Formula (I) and Formula (II) against RS4; 11 and NCI-H146.

For a further assay, the system named is RS4; 11 cancer cells. The assay can be described thus: Cancer cell viability by MTS, 72 hours. Format: cell-based. As to conditions: 11 cells. As to the method:
as §1

A further assay concerns Normal WI38 (NSC). The assay can be described thus: Viability of normal WI38 cells, PI staining and flow cytometry, 72 hours. Type of assay: cell-based. Conditions: viable PI- cells as percentage of vehicle control. As to the method:
(§2) Normal WI38 (NSC) and IR-induced senescent WI38 cells (IR-SC) were incubated with vehicle or increasing concentrations of compounds of Formula (I) or Formula (II) for 72 hours. The cells were digested with 0.25% trypsin and 1 mM EDTA, and harvested in PBS containing 2% FBS. After incubation with propidium iodide (PI, 100 ng/ml) in PBS at room temperature for 1 minute, cells were centrifuged at 1,200 rpm for 6 minutes to remove PI and then resuspended in PBS containing 2% FBS for analysis using a flow cytometer. Viable cells (PI− cells) were analyzed by flow cytometry at a constant flow rate to count the number of cells and calculated as a percentage of control cells treated with vehicle. Table 1 depicts the EC50 values of the compounds of Formula (I) and compounds of Formula (II) against normal WI38 and IR-induced senescent WI38.
For orientation: Flow cytometry measures light scatter and fluorescence of single cells or particles in a stream.

The subject of assay [1] is IR-induced senescent WI38 cells (IR-SC). The assay can be described thus: Viability of IR-induced senescent WI38 cells, PI staining and flow cytometry, 72 hours. Conditions: IR-induced senescent WI38 cells, 72 hours, viable PI- cells as percentage of vehicle control. Format: cell-based. As to the method:
as §2

In the case of `Nc1nc(O)c2ncn(COC(CO)CO)c2n1` [GCV, ganciclovir], the “Reversal of cisplatin-induced peripheral neuropathy” value in the assay with senescent cells is recorded as “reversed cisplatin-induced peripheral neuropathy (CIPN)”.
Consider `CC1(C)CCC(c2ccc(Cl)cc2)=C(CN2CCN(c3ccc(C(=O)NS(=O)(=O)c4ccc(N[C@H](CCN5CCN(C(=O)CCCn6cc(COCCOCCOCCNc7cccc8c7C(=O)N(C7CCC(=O)NC7=O)C8=O)nn6)CC5)CSc5ccccc5)c(S(=O)(=O)C(F)(F)F)c4)cc3)CC2)C1` (stereo partly drawn) [XZ-14439, 4-(4-((4′-chloro-4,4-dimethyl-3,4,5,6-tetrahydro-[1,1′-biphenyl]-2-yl)methyl)piperazin-1-yl)-N-((4-(((2R)-4-(4-(4-(4-((2-(2-(2-((2-(2,6-dioxopiperidin-3-yl)-1,3-dioxoisoindolin-4-yl)amino)ethoxy)ethoxy)ethoxy)methyl)-1H-1,2,3-triazol-1-yl)butanoyl)piperazin-1-yl)-1-(phenylthio)butan-2-yl)amino)-3-((trifluoromethyl)sulfonyl)phenyl)sulfonyl)benzamide], for which the “Bcl-xL depletion in IR-SC WI38 cells, dose and time dependence” value on Bcl-xL was “depletes Bcl-xL”.
For orientation: EC50 means the midpoint of the concentration-response curve. Turning to `CC1(C)CCC(CN2CCN(c3ccc(C(=O)NS(=O)(=O)c4ccc(NCC5CCN(C(=O)CCCn6cc(COCCOCCOCCNc7cccc8c7C(=O)N(C7CCC(=O)NC7=O)C8=O)nn6)CC5)c([N+](=O)[O-])c4)c(Oc4cnc5[nH]ccc5c4)c3)CC2)=C(c2ccc(Cl)cc2)C1` (stereo not drawn) [XZ-14523, 2-((1H-pyrrolo[2,3-b]pyridin-5-yl)oxy)-4-(4-((4′-chloro-5,5-dimethyl-3,4,5,6-tetrahydro-[1,1′-biphenyl]-2-yl)methyl)piperazin-1-yl)-N-((4-(((1-(4-(4-((2-(2-(2-((2-(2,6-dioxopiperidin-3-yl)-1,3-dioxoisoindolin-4-14)amino)ethoxy)ethoxy)ethoxy)methyl)-1H-1,2,3-triazol-1-yl)butanoyl)piperidin-4-yl)methyl)amino)-3-nitrophenyl)sulfonyl)benzamide], the EC50 was 1260 nM with NCI-H146 cancer cells, 161 nM in the assay with RS4; 11 cancer cells, above 10000 nM in the assay on Normal WI38 (NSC) and above 10000 nM in assay [1].
